# Experimental data as given in US10239832B2, “N-(1-hydroxy-3-(pyrrolidinyl)propan-2-yl)pyrrolidine-3-carboxamide derivatives as glucosylceramide synthase inhibitors” (BIOMARIN PHARMACEUTICAL INC., priority 2013, dated 2019).
# Molecular target: T1, GCS (Canis lupus familiaris, UniProt A0A8I3MXG6)
# T1 construct: endogenous in cells; host or cells: MDCK (Madin-Darby canine kidney) cells, whole-cell lysate
# T1 sequence (A0A8I3MXG6 1-394): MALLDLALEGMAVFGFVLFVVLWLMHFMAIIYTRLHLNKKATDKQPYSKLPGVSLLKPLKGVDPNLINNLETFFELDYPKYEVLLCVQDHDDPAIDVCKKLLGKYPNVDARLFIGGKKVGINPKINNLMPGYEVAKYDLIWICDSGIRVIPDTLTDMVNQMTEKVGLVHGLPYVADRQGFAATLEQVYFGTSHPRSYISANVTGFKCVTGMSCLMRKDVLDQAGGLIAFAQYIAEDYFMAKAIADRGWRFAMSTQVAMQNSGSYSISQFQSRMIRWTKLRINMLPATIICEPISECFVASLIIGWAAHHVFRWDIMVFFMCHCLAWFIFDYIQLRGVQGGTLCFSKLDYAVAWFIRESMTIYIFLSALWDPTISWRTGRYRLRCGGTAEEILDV
# Test: GCS enzymatic assay (MDCK cell lysate, NBD-ceramide to glucosylceramide, LC/MS)
# Format: biochemical, canine
# Details: Table 2; class symbols A, B, C; the table does not say which of the assays; read-out: Data Range (IC50 values)
# In short: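 IC50 or percent inhibition came from LC/MS/MS (ESI+, MRM) of NBD-ceramide and glucosylceramide, with tolbutamide as internal standard. The reaction used MDCK (canine) cell lysate as the enzyme source and was ended with acetonitrile. Mock wells received 0.1% DMSO.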
row,Compound,IC50 [nM]
1,"O=C(N[C@H](CN1CCCC1)[C@H](O)c1ccc2c(c1)OCCO2)[C@@H]1CCN(c2ccc3cc(Cl)ccc3n2)C1 [Compound 99, (R)-1-(6-chloroquinolin-2-yl)-N-((1R,2R)-1-(2,3-dihydrobenzo[b][1,4]dioxin-6-yl)-1-hydroxy-3-(pyrrolidin-1-yl)propan-2-yl)pyrrolidine-3-carboxamide]",1 to 30
2,"O=C(N[C@H](CN1CCCC1)[C@H](O)c1cc(F)c2c(c1)OCCO2)[C@@H]1CCN(c2ccc3cc(F)ccc3c2)C1 [Compound 52, (R)-N-((1R,2R)-1-(8-fluoro-2,3-dihydrobenzo[b][1,4]dioxin-6-yl)-1-hydroxy-3-(pyrrolidin-1-yl)propan-2-yl)-1-(6-fluoronaphthalen-2-yl)pyrrolidine-3-carboxamide]",1 to 30
3,"O=C(N[C@H](CN1CCCC1)[C@H](O)c1ccc(OC2CC2)c(Cl)c1)C1CCN(c2ccc(Cl)cc2)C1 (stereo partly drawn) [Compound 3A, N-((1R,2R)-1-(3-chloro-4-cyclopropoxyphenyl)-1-hydroxy-3-(pyrrolidin-1-yl)propan-2-yl)-1-(4-chlorophenyl)pyrrolidine-3-carboxamide]",30 to 100
4,"Cn1ncc2ccc(N3CC[C@@H](C(=O)N[C@H](CN4CCCC4)[C@H](O)c4ccc(OC5CC5)c(Cl)c4)C3)cc21 [Compound 133, (R)-N-((1R,2R)-1-(3-chloro-4-cyclopropoxyphenyl)-1-hydroxy-3-(pyrrolidin-1-yl)propan-2-yl)-1-(1-methyl-1H-indazol-6-yl)pyrrolidine-3-carboxamide]",1 to 30
5,"N#Cc1ccc(N2CCC(C(=O)N[C@H](CN3CCCC3)C(O)c3ccc(OC4CC4)c(Cl)c3)C2)cc1 (stereo in doubt) [Compound 152C, (R)-N-((1S,2R)-1-(3-chloro-4-cyclopropoxyphenyl)-1-hydroxy-3-(pyrrolidin-1-yl)propan-2-yl)-1-(4-cyanophenyl)pyrrolidine-3-carboxamide]",30 to 100
6,"O=C(N[C@H](CN1CCCC1)[C@H](O)c1ccc2c(c1)OCCO2)[C@@H]1CCN(c2ccc(Cl)c(Oc3ccccn3)c2)C1 [Compound 110, (R)-1-(4-chloro-3-(pyridin-2-yloxy)phenyl)-N-((1R,2R)-1-(2,3-dihydrobenzo[b][1,4]dioxin-6-yl)-1-hydroxy-3-(pyrrolidin-1-yl)propan-2-yl)pyrrolidine-3-carboxamide]",1 to 30
7,"O=C(N[C@H](CN1CCCC1)[C@H](O)c1cc(F)c2c(c1)OCCO2)[C@@H]1CCN(c2ccc3ccsc3c2)C1 [Compound 97, (R)-1-(benzo[b]thiophen-6-yl)-N-((1R,2R)-1-(8-fluoro-2,3-dihydrobenzo[b][1,4]dioxin-6-yl)-1-hydroxy-3-(pyrrolidin-1-yl)propan-2-yl)pyrrolidine-3-carboxamide]",1 to 30
8,"Cn1ncc2ccc(N3CC[C@@H](C(=O)N[C@H](CN4CCCC4)[C@H](O)c4cc(F)c5c(c4)OCCO5)C3)cc21 [Compound 132, (R)-N-((1R,2R)-1-(8-fluoro-2,3-dihydrobenzo[b][1,4]dioxin-6-yl)-1-hydroxy-3-(pyrrolidin-1-yl)propan-2-yl)-1-(1-methyl-1H-indazol-6-yl)pyrrolidine-3-carboxamide]",1 to 30
9,"O=C(N[C@H](CN1CCCC1)[C@H](O)c1ccc2c(c1)OCCO2)[C@@H]1CCN(c2ccc(F)cc2)C1 [Compound 24, (R)-N-((1R,2R)-1-(2,3-dihydrobenzo[b][1,4]dioxin-6-yl)-1-hydroxy-3-(pyrrolidin-1-yl)propan-2-yl)-1-(4-fluorophenyl)pyrrolidine-3-carboxamide]",1 to 30
10,"CC(C)(O)COc1ccc([C@@H](O)[C@@H](CN2CCCC2)NC(=O)[C@@H]2CCN(c3ccc(Cl)cc3)C2)cc1Cl [Compound 87, (R)-N-((1R,2R)-1-(3-chloro-4-(2-hydroxy-2-methylpropoxy)phenyl)-1-hydroxy-3-(pyrrolidin-1-yl)propan-2-yl)-1-(4-chlorophenyl)pyrrolidine-3-carboxamide]",1 to 30
11,"O=C(N[C@H](CN1CCCC1)[C@H](O)c1ccc2c(c1)OCCO2)C1CCN(c2ccc(F)cc2)C1 (stereo partly drawn) [Compound 24B, N-((1R,2R)-1-(2,3-dihydrobenzo[b][1,4]dioxin-6-yl)-1-hydroxy-3-(pyrrolidin-1-yl)propan-2-yl)-1-(4-fluorophenyl)pyrrolidine-3-carboxamide]",1 to 30
12,"O=C(N[C@H](CN1CCCC1)[C@H](O)c1ccc(OC2CC2)c(Cl)c1)[C@@H]1CCN(c2ccc3cc(F)ccc3c2)C1 [Compound 84, (R)-N-((1R,2R)-1-(3-chloro-4-cyclopropoxyphenyl)-1-hydroxy-3-(pyrrolidin-1-yl)propan-2-yl)-1-(6-fluoronaphthalen-2-yl)pyrrolidine-3-carboxamide]",1 to 30
13,"O=C(N[C@H](CN1CCCC1)[C@H](O)c1ccc(OC2CC2)c(Cl)c1)[C@@H]1CCN(c2ccc(F)cc2)C1 [Compound 96, (R)-N-((1R,2R)-1-(3-chloro-4-cyclopropoxyphenyl)-1-hydroxy-3-(pyrrolidin-1-yl)propan-2-yl)-1-(4-fluorophenyl)pyrrolidine-3-carboxamide]",1 to 30

# Same assay, conditions: Table 2; class symbols D, E, F, NA (not active); the table does not say which of the assays
row,Compound,Data Range (% inhibition)
1,"O=C(N[C@H](CN1CCCC1)[C@H](O)c1ccc2c(c1)OCCO2)[C@@H]1CCN(c2ccnc(OC3CC3)c2)C1 [Compound 56, (R)-1-(2-cyclopropoxypyridin-4-yl)-N-((1R,2R)-1-(2,3-dihydrobenzo[b][1,4]dioxin-6-yl)-1-hydroxy-3-(pyrrolidin-1-yl)propan-2-yl)pyrrolidine-3-carboxamide]",F (1-49% (or less than 50%))
2,"O=C(NC(CN1CCCC1)[C@H](O)c1cc(F)c2c(c1)OCCO2)[C@H]1CCN(c2ccc3ccccc3n2)C1 (stereo in doubt) [Compound 68C, (S)-N-((1R,2S)-1-(8-fluoro-2,3-dihydrobenzo[b][1,4]dioxin-6-yl)-1-hydroxy-3-(pyrrolidin-1-yl)propan-2-yl)-1-(quinolin-2-yl)pyrrolidine-3-carboxamide]",F (1-49% (or less than 50%))
3,"O=C(N[C@H](CN1CCCC1)[C@H](O)c1ccc(OC2CC2)c(Cl)c1)[C@H]1CCN(c2cccc(Oc3ccccn3)c2)C1 [Compound 75E, (S)-N-((1R,2R)-1-(3-chloro-4-cyclopropoxyphenyl)-1-hydroxy-3-(pyrrolidin-1-yl)propan-2-yl)-1-(3-(pyridin-2-yloxy)phenyl)pyrrolidine-3-carboxamide]",D (75-100%)
4,"O=C(N[C@H](CN1CCCC1)[C@H](O)c1ccc(OC2CCOCC2)c(Cl)c1)[C@H]1CCN(c2ccc(F)cc2)C1 [Compound 32A, (S)-N-((1R,2R)-1-(3-chloro-4-((tetrahydro-2H-pyran-4-yl)oxy)phenyl)-1-hydroxy-3-(pyrrolidin-1-yl)propan-2-yl)-1-(4-fluorophenyl)pyrrolidine-3-carboxamide]",F (1-49% (or less than 50%))
5,"O=C(N[C@H](CN1CCCCC1)[C@H](O)c1ccc2c(c1)OCCO2)C1CCN(c2ccc(F)cc2)C1 (stereo partly drawn) [Compound 46A, N-((1R,2R)-1-(2,3-dihydrobenzo[b][1,4]dioxin-6-yl)-1-hydroxy-3-(piperidin-1-yl)propan-2-yl)-1-(4-fluorophenyl)pyrrolidine-3-carboxamide]",F (1-49% (or less than 50%))
6,"O=C(N[C@H](CN1CCCC1)[C@H](O)c1ccc2c(c1)OCCO2)[C@H]1CCN(c2ccc3nccnc3c2)C1 [Compound 83D, (S)-N-((1R,2R)-1-(2,3-dihydrobenzo[b][1,4]dioxin-6-yl)-1-hydroxy-3-(pyrrolidin-1-yl)propan-2-yl)-1-(quinoxalin-6-yl)pyrrolidine-3-carboxamide]",NA (not active—a negative value was generated for % inhibition)
7,"O=C(N[C@H](CN1CCCC1)[C@H](O)c1ccc2c(c1)OCCO2)[C@@H]1CCN(c2ccc(OC3CC3)nc2)C1 [Compound 58, (R)-1-(6-cyclopropoxypyridin-3-yl)-N-((1R,2R)-1-(2,3-dihydrobenzo[b][1,4]dioxin-6-yl)-1-hydroxy-3-(pyrrolidin-1-yl)propan-2-yl)pyrrolidine-3-carboxamide]",E (50-74% (or less than 75%))
8,"O=C(N[C@H](CN1CCCC1)[C@H](O)c1ccc(OC2CC2)c(Cl)c1)[C@@H]1CCN(c2ccc(Cl)cn2)C1 [Compound 57, (R)-N-((1R,2R)-1-(3-chloro-4-cyclopropoxyphenyl)-1-hydroxy-3-(pyrrolidin-1-yl)propan-2-yl)-1-(5-chloropyridin-2-yl)pyrrolidine-3-carboxamide]",F (1-49% (or less than 50%))
9,"O=C(N[C@H](CN1CCCC1)[C@H](O)c1ccc2c(c1)OCCO2)[C@@H]1CCN(c2ccc3ccsc3c2)C1 [Compound 53, (R)-1-(benzo[b]thiophen-6-yl)-N-((1R,2R)-1-(2,3-dihydrobenzo[b][1,4]dioxin-6-yl)-1-hydroxy-3-(pyrrolidin-1-yl)propan-2-yl)pyrrolidine-3-carboxamide]",E (50-74% (or less than 75%))
10,"O=C(N[C@H](CN1CCCC1)[C@H](O)c1ccc(OC2COC2)c(Cl)c1)[C@@H]1CCN(c2ccc(Cl)cc2)C1 [Compound 59, (R)-N-((1R,2R)-1-(3-chloro-4-(oxetan-3-yloxy)phenyl)-1-hydroxy-3-(pyrrolidin-1-yl)propan-2-yl)-1-(4-chlorophenyl)pyrrolidine-3-carboxamide]",F (1-49% (or less than 50%))
